# Reference: paper PMC5933457, “Probing biological activity through structural modelling of ligand-receptor interactions of 2,4-disubstituted thiazole retinoids” (Bioorganic & Medicinal Chemistry, 2018)
# Where two headings read alike, the source gives them in different places.
# Experiments:
# [1] = system: TERA2.cl.SP12 embryonal carcinoma stem cells; assay: Flow cytometry of cell-surface differentiation markers SSEA-3, TRA-1–60, A2B5; type: cell-based, human; settings: 10 μM retinoid, 7 days, compared to ATRA and control cultures, Fig. 7A
# Description: First, we examined neuronal differentiation in pluripotent TERA2.cl.SP12 human embryonal carcinoma stem cells in response to retinoid treatment. TERA2.cl.SP12 cells have been used in previous studies, [29] to test the ability of synthetic retinoids to induce differentiation along a neuronal or an alternative epithelial pathway at long in vitro timescales of up to three weeks. […] Since the parent carboxylic acid (GZ24) had little activity, the response to GZ22 was a real effect of the ester rather than a result of hydrolysis of the parent ester to the carboxylic acid.
# The expression of specific cell surface protein markers (SSEA-3, TRA-1–60, A2B5) on TERA2.cl.SP12 was analyzed using flow cytometry as described previously.[53] Briefly, TERA2.cl.SP12 cells, 2 × 10^5 per 25 cm^2 flask, were seeded 12–24 h before treatment with 10 μM retinoid for 7 days. The primary antibodies used were SSEA-3 (diluted 1:10, University of Iowa Hybridoma Bank), TRA-1–60 (diluted 1:50, Abcam) and neural cell marker A2B5 (diluted 1:40, R&D Systems). Labeled cells were analyzed in a Guave EasyCyte Plus System (Millipore) flow cytometer and thresholds determining the numbers of positively expressing cells were set against the negative control antibody, P3X.
# [2] = target: T1, RARα ligand-binding domain (GST-RAR-α-LBD) (Homo sapiens, UniProt P10276); assay: LanthaScreen TR-FRET RARα co-activator (receptor binding) assay; type: biochemical; settings: for binding-curve upper asymptote (coactivator recruitment), RARα: in words, Fig. 6A; for EC50: read-out: EC50 (95% confidence range) RARα
# T1 construct: purchased Invitrogen
# T1 sequence (P10276 183-417 limits assumed): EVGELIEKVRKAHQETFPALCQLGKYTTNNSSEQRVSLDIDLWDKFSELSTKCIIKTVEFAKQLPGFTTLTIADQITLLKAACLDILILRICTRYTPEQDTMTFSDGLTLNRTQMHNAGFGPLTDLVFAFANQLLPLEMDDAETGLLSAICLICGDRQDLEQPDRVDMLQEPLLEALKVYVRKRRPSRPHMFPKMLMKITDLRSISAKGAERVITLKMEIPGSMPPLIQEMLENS
# Experimental: (§1) These predictions were tested through a receptor-binding assay for each RAR isotype (Fig. 6), where the assay signal is dependent on two parameters: the binding affinity of ligand to the RAR LBD, and the affinity of the coactivator for the ligand-LBD complex. For this assay, binding curves and variation in level of the upper asymptote can reflect differences in co-activator affinity for the ligand-LBD complex; variation in affinity of ligand for LBD shifts the midpoint (EC50) of the binding curve, whereas changes in the level of the upper asymptote may result from changes in coactivator affinity for the ligand-LBD complex alone, or in combination with changes in affinity for ligand with LBD.[23]
# (§2) The binding interaction of each retinoid with RARα, β and γ were determined in vitro by time-resolved fluorescence resonance energy transfer (TR-FRET) using the LanthaScreen TR-FRET RARα, RARβ, and RARγ co-activator assays according to the manufacturer’s (Invitrogen™) instructions.[23] This uses a terbium-labeled anti-GST antibody, a fluorescein-labeled co activator peptide, and RARα/β/γ ligand-binding domains (LBD) that are tagged with glutathione-S-transferase (GST) in a homogenous assay format. All experiments were performed in black, 384-well low-volume plates in the dark at RT with a 4 h incubation time. The final assay volume was 20 μL and all dilutions were carried out using TR-FRET assay buffer, with a final DMSO concentration of 1%. A mixture of either 3.5 nM GST-RAR-α-LBD or 2.5 nM GST-RAR-β-LBD or 3 nM GST-RAR-γ-LBD with 62.5 nM Tb-anti GST antibody and 30 μM fluorescein-labeled peptide and retinoid or DMSO control was added to each of the wells. Each ligand assay was performed in duplicate and measured using a PHERAstar FS Microplate Reader (BMG Labtech, Ortenberg, Germany) with instrument settings as described in the manufacturer’s instructions for LanthaScreen assays. The TR-FRET signal was expressed as the ratio of the signals at 520 nm and 490 nm. The data were fitted to a three-parameter ligand-binding curve using SigmaPlot (version 12.5, Systat Software Inc., San Jose CA) and normalized to the lower asymptote of each binding curve. […] Since the assay involves interactions between ligand and LBD, and ligand-dependent interactions between the LBD and fluorescein-labeled co activator, the binding assay data were interpreted by simulating these coupled chemical reactions using the biochemical simulator COPASI version 4.3.[23], [54]
# (§3) The readout of the Lanthascreen TR-FRET binding assay is based on a Forster resonance energy transfer (FRET) signal generated from the interaction between a terbium-labelled anti-glutathione-S-transferase (GST) antibody and a fluorescein-labelled coactivator peptide. The RAR ligand-binding domain (LBD) is a GST fusion protein and interaction between the LBD and the fluorescein-labelled coactivator peptide is driven by the binding of ligand to the LBD, and detected by the FRET signal from the terbium/fluorescein interaction when the terbium-labelled anti-GST binds the LBD fusion protein. The output of the assay thus relies on two binding interactions: ligand with LBD, and ligand-bound LBD with the coactivator peptide. As both interactions may be affected by the fit of ligand to the binding pocket of the LBD, we used the biochemical pathway simulator COPASI^1 to build a simple model of how the FRET signal output in the assay will vary according to differential changes in the kinetics of the two binding interactions. Reactions were modelled deterministically using mass-action kinetics described by ordinary differential equations (ODE) within COPASI.^1 This model enables us to assess the effect of different rate constants and varying ligand concentration on the formation of the final ternary complex that is the read-out from the Lanthascreen TR-FRET assay.
# [3] = target: T2, RARβ ligand-binding domain (GST-RAR-β-LBD) (Homo sapiens, UniProt P10826); assay: LanthaScreen TR-FRET RARβ co-activator (receptor binding) assay; type: biochemical; settings: for EC50: estimated EC50, TR-FRET co-activator assay, 4 h incubation, read-out: EC50 (95% confidence range) RARβ; for binding-curve upper asymptote (coactivator recruitment), RARβ: Fig. 6B
# T2 construct: purchased Invitrogen
# T2 sequence (P10826 183-417 limits assumed): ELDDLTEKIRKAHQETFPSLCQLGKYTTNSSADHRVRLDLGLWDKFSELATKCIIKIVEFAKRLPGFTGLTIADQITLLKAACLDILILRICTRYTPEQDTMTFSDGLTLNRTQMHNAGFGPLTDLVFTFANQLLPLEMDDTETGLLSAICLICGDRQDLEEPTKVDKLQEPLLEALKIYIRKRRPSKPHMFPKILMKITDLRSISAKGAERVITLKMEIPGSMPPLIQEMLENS
# Experimental: as §1, §2, §3
# [4] = target: T3, RARγ ligand-binding domain (GST-RAR-γ-LBD) (Homo sapiens, UniProt P13631); assay: LanthaScreen TR-FRET RARγ co-activator (receptor binding) assay; type: biochemical; settings: for EC50: estimated EC50, TR-FRET co-activator assay, 4 h incubation, read-out: EC50 (95% confidence range) RARγ; for binding-curve upper asymptote (coactivator recruitment), RARγ: in words, Fig. 6C
# T3 construct: purchased Invitrogen
# T3 sequence (P13631 185-419 limits assumed): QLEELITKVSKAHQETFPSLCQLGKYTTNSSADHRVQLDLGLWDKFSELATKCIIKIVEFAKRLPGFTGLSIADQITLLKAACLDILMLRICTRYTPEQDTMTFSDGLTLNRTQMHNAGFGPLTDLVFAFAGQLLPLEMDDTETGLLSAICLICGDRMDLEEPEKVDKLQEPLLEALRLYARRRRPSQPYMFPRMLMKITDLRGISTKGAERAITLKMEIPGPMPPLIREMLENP
# Experimental: as §1, §2, §3
# [5] = system: SH-SY5Y human neuroblastoma cells; assay: Retinoid-induced gene expression (RARα, RARβ, RARγ, CYP26A1) by real-time PCR; type: cell-based
# Experimental: As an additional assay of biological activity, short-term changes in expression of four genes in SH-SY5Y cells was employed; a neuroblastoma-derived lineage that undergoes neuronal differentiation in response to retinoid treatment. The four genes assayed, RARα, RARβ, RARγ and CYP26A, have RAREs associated with their promoters and may be directly regulated by retinoids.[51], [52]
# (§4) Real time PCR was carried out immediately after treatment on both cell line lysates with 0.25% trypsin–EDTA. TERA-2.cl.SP12 cells were seeded at a density of 1 × 10^6 cells per 25 cm^2 flask, 12–24 h before treatment. […] SH-SY5Y cells were seeded at a density of 1 × 10^6 cells per 25 cm^2 flask, 12–24 h before treatment. […] Commercial RNA extraction kits (Qiagen) and reverse transcription (Applied Biosystems) kits were purchased and procedures used according to the manufacturer instructions. Real time PCR was performed using the TaqMan® Universal PCR Master Mix (Life technologies) and TaqMan® gene expression system (Applied Biosystems) based on probe sets to the specific genes to be analysed. Genecodes used are as follows: RARβ (Hs00233407_m1), CYP26-A1 (Hs00175627_m1), RARα (Hs00940448_g1), RARγ (Hs01559234_m1), PAX-6 (Hs01088112_m1), NeuroD1 (Hs01922995_s1). GADPH (Hs02758991_g1) and ACTB (Hs99999903_m1) were used as internal control genes for TERA-2.cl.SP12 and SH-SY5Y, respectively.
# TERA2.cl.SP12 stem cells = assay: Real-time PCR for neuronal markers NeuroD1 and PAX6; type: cell-based, human; settings: 10 μM, Fig. 7B
# Experimental: Second, NeuroD1 and PAX6 are retinoid-induced transcription factors involved in regulating neuronal differentiation,[49], [50] and are expressed in neurons derived from TERA2.cl.SP12 stem cells.
# as §4
# TERA2.cl.SP12 cells = assay: Immunocytochemistry for A2B5, TUJ-1 and cytokeratin 8; type: cell-based, human
# Experimental: Third, we carried out assessment of protein expression using immunofluorescent techniques on cultures of TERA2.cl.SP12 cells treated with retinoids.
# TERA2.cl.SP12 cells were seeded at 5000 cells per well on poly-D-lysine (25 μg/ml) coated cover slips in 6-well plates. Cells were treated with each retinoid at a concentration of 10 μM for 7, 14 and 21 days (the media was changed every 3–4 days). Cells were also treated with 1% DMSO for the same time periods as a […] control. At the end of the treatment period, cells were fixed (4% para-formaldehyde in PBS for 30 min at room temperature (RT) and rinsed with PBS. One set of experiments was used for the cell surface marker A2B5 (diluted 1:100, R&D systems), and the other set was prepared for intracellular staining using 1% Triton-X-100 (Sigma Aldrich) in PBS as a permeabilizing agent for 10 min at RT. Non-specific labeling was blocked by incubation with a solution of 1% goat serum (Sigma Aldrich) containing 0.2% Tween-20 (Sigma Aldrich) in PBS for one hour at RT. The primary antibodies β-III tubulin antibody (TUJ-1) (1:200, Affymetrix eBioscience) and CK-8 antibody (1:500, Affymetrix eBioscience) were diluted in blocking solution and incubated with the cells for 1 h at RT. After washing three times for 15 min with PBS, cells were incubated for 1 h in the dark with anti-mouse FITC-conjugated secondary antibody IgM (1:128, Sigma Aldrich) for A2B5 staining, and anti-mouse Alexafluor 488 IgG (1:600, Invitrogen) for TUJ-1 and CK-8 staining. Hoechst 33,342 nuclear staining dye (1:1000, Molecular Probes) was dissolved in blocking solution after the secondary antibody staining step for nuclear staining.
# Immunocytofluorescent images of fixed cells were visualized using a Leica SP5 confocal microscope. Scale bars are shown at 25 μm.
SMILES,"proportion of cells expressing differentiation markers SSEA-3, TRA-1–60, A2B5 [1]","binding-curve upper asymptote (coactivator recruitment), RARα [2]",EC50 [2],EC50 [3],"binding-curve upper asymptote (coactivator recruitment), RARβ ([3]; in words)","RAR-type selectivity from binding assay ([3]; in words, from EC50 values of Table 1)",EC50 [4],"binding-curve upper asymptote (coactivator recruitment), RARγ [4]","EC50 ([2]; estimated EC50, TR-FRET co-activator assay, 4 h incubation)","induction of RARα and RARγ expression ([5]; 10 μM retinoid, over a 12 h period, Fig. 8A)","induction of RARβ expression, rank order ([5]; dose-response 1 nM to 1 μM, 8 h treatment, all doses, Fig. 8B)","induction of CYP26A1 expression, rank order ([5]; dose-response 1 nM to 1 μM, 8 h treatment, doses <1 μM, Fig. 8B)","NeuroD1 mRNA expression, rank order (TERA2.cl.SP12 stem cells; after 5 days)","NeuroD1 mRNA expression, rank order (TERA2.cl.SP12 stem cells; after 7 days)","induction of PAX6 expression, rank order (TERA2.cl.SP12 stem cells; up to 7 days)","expression of epithelial phenotype marker cytokeratin 8 (TERA2.cl.SP12 cells; 10 μM, 1, 2 and 3 weeks, Fig. 7D)","expression of neuronal differentiation marker A2B5 (immunofluorescence) (TERA2.cl.SP12 cells; 10 μM, after 7 days, Fig. 7C)","neuronal differentiation by TUJ-1 staining (TERA2.cl.SP12 cells; 10 μM, up to 3 weeks, Fig. 7C)"
CCOC(=O)c1ccc(-c2nc(-c3ccc4c(c3)C(C)(C)CCC4(C)C)c(C)s2)cc1 [GZ23],very little activity,lower asymptotes,88.9 nM,12.1 nM,high asymptotes,surprising selectivity for RARβ,847 nM,intermediate,,,,,,,,,,
Cc1sc(-c2ccc(C(=O)O)cc2)nc1-c1ccccc1 [GZ24],very little activity,lower asymptotes,,77.8 nM,very low asymptotes,,109 nM,intermediate,77.5 nM,,,,,,,,,
"CC1=C(/C=C/C(C)=C/C=C/C(C)=C/C(=O)O)C(C)(C)CCC1 [ATRA, all-trans-retinoic acid, reference compound]",,high curve asymptotes,,,,,,,,greatest activity,GZ25 ≫ ATRA > GZ18,GZ25 > GZ18 > ATRA,GZ25 > GZ18 > ATRA,ATRA > GZ25,GZ25 ≫ ATRA > GZ18,not detectable,induced,most effective
